Measurements reported in US20260070945A1, “MACROCYCLIC IMMUNOMODULATORS” (Bristol-Myers Squibb Company, priority 2022, published 2026).
*1 amine or outer side, *2 acyl side, *3 side chain or, on linkers, in order; H or OH if unused. Where a SMILES comes first, the peptide text is derived from it. Bridges are numbered along the chain shown (N, C = ends). [ ]: non-standard residue; d: D form. The star is where a group is joined. ξ: configuration not given here. Phe(4-guanidino) = N=C(N)Nc1ccc(C[C@H](N)C(=O)O)cc1; Phe(3-CF3) = N[C@@H](Cc1cccc(C(F)(F)F)c1)C(=O)O; Phe(4-CF3) = N[C@@H](Cc1ccc(C(F)(F)F)cc1)C(=O)O; Ala(morpholin-4-yl) = N[C@@H](CN1CCOCC1)C(=O)O; Phe(4-COOH) = N[C@@H](Cc1ccc(C(=O)O)cc1)C(=O)O; Bip = N[C@@H](Cc1ccc(-c2ccccc2)cc1)C(=O)O; NH(CH2)14COOH = O=C(O)CCCCCCCCCCCCCCN*; Phe(3-Me) = Cc1cccc(C[C@H](N)C(=O)O)c1; NH(CH2)8CO = O=C(CCCCCCCCN[*:1])[*:2]; NH(CH2)12COOH = O=C(O)CCCCCCCCCCCCN*; NMeAEEA = CN(CCOCCOCC(=O)[*:2])[*:1]; Val(3-OH) = CC(C)(O)[C@H](N)C(=O)O; 4Pal = N[C@@H](Cc1ccncc1)C(=O)O; Cha = N[C@@H](CC1CCCCC1)C(=O)O; Ile(3ξ) = CCC(C)[C@H](N)C(=O)O; Thr(3ξ) = CC(O)[C@H](N)C(=O)O; hSer = N[C@@H](CCO)C(=O)O; Carboxymethyl = O=C(O)C*; NMeA = CN[C@@H](C)C(=O)O; Orn = NCCC[C@H](N)C(=O)O; Pra = C#CC[C@H](N)C(=O)O; Aun = NCCCCCCCCCCC(=O)O; Dab = NCC[C@H](N)C(=O)O; Nva = CCC[C@H](N)C(=O)O; Dap = NC[C@H](N)C(=O)O; AEEA = NCCOCCOCC(=O)O

Biological target: T1, PD-1/PD-L1 interaction (PE-labeled human PD-L1-Ig binding to Jurkat cell line over-expressing human PD-1) (Homo sapiens, UniProt Q15116)
T1 construct: expressed in transfected cells; host or cells: Jurkat
T1 sequence (Q15116 25-288): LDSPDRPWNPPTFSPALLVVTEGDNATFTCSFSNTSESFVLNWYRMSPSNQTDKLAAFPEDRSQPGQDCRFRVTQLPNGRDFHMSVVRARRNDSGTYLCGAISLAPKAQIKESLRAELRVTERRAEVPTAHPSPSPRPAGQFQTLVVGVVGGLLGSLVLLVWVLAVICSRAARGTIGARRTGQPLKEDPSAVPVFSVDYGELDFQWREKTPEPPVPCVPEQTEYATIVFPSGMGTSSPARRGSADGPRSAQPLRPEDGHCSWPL
Assay: Jurkat-PD-1 Cell Binding High-Content Screening Assay (CBA)
Settings: Jurkat-hPD-1 cells, PE-labeled PD-L1-Ig 20 nM final; read-out: Jurkat HPD1 PDL1 IC50
Summary of the method: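 High-content imaging read-out of PE-PD-L1-Ig binding (20 nM final, 1 h) to Jurkat-hPD-1 cells, after 2 h compound exposure at 37 °C in DMEM with 10% FCS. Nuclei counterstained with Hoechst 33342 after paraformaldehyde fixation.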

Row | SMILES | IC50
1 | CC[C@H](C)[C@@H]1NC(=O)[C@H](Cc2ccc(-c3ccccc3)cc2)NC(=O)[C@H](CC(C)C)NC(=O)[C@H](Cc2c[nH]c3ccccc23)NC(=O)[C@H](CC(=O)O)NC(=O)[C@H](Cc2ccc(C(=O)O)cc2)NC(=O)[C@H](Cc2ccc(OCC(=O)O)cc2)NC(=O)CSC[C@@H](C(=O)N[C@@H](CN)C(=O)NCCOCCOCC(=O)NCCCCCCCCCCC(=O)O)NC(=O)[C@H](CO)NC(=O)[C@H](C(C)C)NC(=O)[C@H](CC2CCCCC2)NC(=O)[C@H](CCN)NC(=O)[C@@H](CC(C)C)NC(=O)[C@H](C)N(C)C1=O [Example 1076] ({CH2CO}-Y(Carboxymethyl)[Phe(4-COOH)]DWL[Bip]I[NMeA][dL][Dab][Cha]VSC[Dap][AEEA][Aun]-OH; thioether N-14) | 16.5 nM
2 | COC[C@@H]1NC(=O)CSC[C@@H](C(=O)N[C@@H](CCN)C(=O)NCCCCCCCCCCCCC(=O)O)NC(=O)[C@H](CC(=O)O)NC(=O)[C@H](C(C)(C)O)NC(=O)[C@H](CC2CCCCC2)NC(=O)[C@H](CCN)NC(=O)[C@@H](CC(C)C)NC(=O)[C@H](C)N(C)C(=O)[C@H](CCC(N)=O)NC(=O)[C@H](Cc2ccc(-c3ccccc3)cc2)NC(=O)[C@H](Cc2ccc(C(=O)O)cc2)NC(=O)[C@H](Cc2cccc(C(F)(F)F)c2)NC(=O)[C@H](CC(=O)O)NC(=O)[C@H](Cc2ccc(OCC(=O)O)cc2)NC1=O [Example 1134] ({CH2CO}-S(Me)Y(Carboxymethyl)D[Phe(3-CF3)][Phe(4-COOH)][Bip]Q[NMeA][dL][Dab][Cha][Val(3-OH)]DC[Dab]-{NH(CH2)12COOH}; thioether N-14) | 15.3 nM
3 | Cc1cccc(C[C@@H]2NC(=O)[C@H](CC(=O)O)NC(=O)[C@H](Cc3ccc(OCC(=O)O)cc3)NC(=O)[C@H](C(C)O)NC(=O)CSC[C@@H](C(=O)N(C)CCOCCOCC(=O)NCCCCCCCCCCC(=O)O)NC(=O)[C@H](CCCN)NC(=O)[C@H](C(C)C)NC(=O)[C@H](CC3CCCCC3)NC(=O)[C@H](CCN)NC(=O)[C@@H](CC(C)C)NC(=O)[C@H](C)N(C)C(=O)[C@H](C(C)C)NC(=O)[C@H](Cc3ccc(-c4ccccc4)cc3)NC(=O)[C@H](C(C)C)NC2=O)c1 (stereo partly drawn) [Example 2219] ({CH2CO}-[Thr(3ξ)]Y(Carboxymethyl)D[Phe(3-Me)]V[Bip]V[NMeA][dL][Dab][Cha]V[Orn]C[NMeAEEA][Aun]-OH; thioether N-14) | 6.2 nM
4 | CC(C)C[C@H]1NC(=O)[C@H](C)N(C)C(=O)[C@H](CCC(N)=O)NC(=O)[C@H](Cc2ccc(-c3ccccc3)cc2)NC(=O)[C@H](Cc2ccc(C(=O)O)cc2)NC(=O)[C@H](Cc2cccc(C(F)(F)F)c2)NC(=O)[C@H](CC(=O)O)NC(=O)[C@H](Cc2ccc(OCC(=O)O)cc2)NC(=O)[C@H](CN2CCOCC2)NC(=O)CSC[C@@H](C(=O)N[C@@H](CCN)C(=O)NCCCCCCCCCCCCC(=O)O)NC(=O)[C@H](CCC(=O)O)NC(=O)[C@H](C(C)C)NC(=O)[C@H](CC2CCCCC2)NC(=O)[C@H](CCN)NC1=O [Example 1151] ({CH2CO}-[Ala(morpholin-4-yl)]Y(Carboxymethyl)D[Phe(3-CF3)][Phe(4-COOH)][Bip]Q[NMeA][dL][Dab][Cha]VEC[Dab]-{NH(CH2)12COOH}; thioether N-14) | 6.1 nM
5 | CCC(C)[C@@H]1NC(=O)[C@H](Cc2ccc(-c3ccccc3)cc2)NC(=O)[C@H](C(C)C)NC(=O)[C@H](Cc2c[nH]c3ccccc23)NC(=O)[C@H](CC(=O)O)NC(=O)[C@H](Cc2ccc(OCC(=O)O)cc2)NC(=O)[C@H](C(C)O)NC(=O)CSC[C@@H](C(=O)NCCOCCOCC(=O)N[C@@H](CCCCN)C(=O)NCCCCCCCCCCC(=O)O)NC(=O)[C@H](CO)NC(=O)[C@H](C(C)C)NC(=O)[C@H](CC2CCCCC2)NC(=O)[C@H](CCN)NC(=O)[C@@H](CC(C)C)NC(=O)[C@H](C)N(C)C1=O (stereo partly drawn) [Example 2030] ({CH2CO}-[Thr(3ξ)]Y(Carboxymethyl)DWV[Bip][Ile(3ξ)][NMeA][dL][Dab][Cha]VSC[AEEA]K[Aun]-OH; thioether N-14) | 13.2 nM

Results, then the compound that gave them:

Row | IC50 | SMILES
6 | 51.7 nM | Cc1cccc(C[C@@H]2NC(=O)[C@H](CC(=O)O)NC(=O)[C@H](Cc3ccc(OCC(=O)O)cc3)NC(=O)[C@H](C(C)O)NC(=O)CSC[C@@H](C(=O)NCCOCCOCC(=O)NCCCCCCCCCCC(=O)O)NC(=O)[C@H](C(C)O)NC(=O)[C@H](C(C)C)NC(=O)[C@H](CC3CCCCC3)NC(=O)[C@H](CCN)NC(=O)[C@@H](CC(C)C)NC(=O)[C@H](C)N(C)C(=O)[C@H](Cc3ccc(OCC(=O)O)cc3)NC(=O)[C@H](Cc3ccc(-c4ccccc4)cc3)NC(=O)[C@H](Cc3ccc(C(=O)O)cc3)NC2=O)c1 (stereo partly drawn) [Example 2343] ({CH2CO}-[Thr(3ξ)]Y(Carboxymethyl)D[Phe(3-Me)][Phe(4-COOH)][Bip]Y(Carboxymethyl)[NMeA][dL][Dab][Cha]V[Thr(3ξ)]C[AEEA][Aun]-OH; thioether N-14)
7 | 34 nM | CC(C)C[C@@H]1NC(=O)[C@H](Cc2c[nH]c3ccccc23)NC(=O)[C@H](CC(=O)O)NC(=O)[C@H](Cc2ccc(C(=O)O)cc2)NC(=O)[C@H](Cc2ccc(OCC(=O)O)cc2)NC(=O)CSC[C@@H](C(=O)NCCOCCOCC(=O)NCCCCCCCCCCC(=O)O)NC(=O)[C@H](CCO)NC(=O)[C@H](C(C)C)NC(=O)[C@H](CC2CCCCC2)NC(=O)[C@H](CCN)NC(=O)[C@@H](CC(C)C)NC(=O)[C@H](C)N(C)C(=O)[C@H](CCC(N)=O)NC(=O)[C@H](Cc2ccc(-c3ccccc3)cc2)NC1=O [Example 2227] ({CH2CO}-Y(Carboxymethyl)[Phe(4-COOH)]DWL[Bip]Q[NMeA][dL][Dab][Cha]V[hSer]C[AEEA][Aun]-OH; thioether N-14)
8 | 15.3 nM | CC(C)C[C@@H]1NC(=O)[C@H](Cc2c[nH]c3ccccc23)NC(=O)[C@H](CC(=O)O)NC(=O)[C@H](Cc2ccncc2)NC(=O)[C@H](Cc2ccc(OCC(=O)O)cc2)NC(=O)CSC[C@@H](C(=O)N[C@@H](CCN)C(=O)NCCCCCCCCCCC(=O)O)NC(=O)[C@H]([C@@H](C)O)NC(=O)[C@H](C(C)C)NC(=O)[C@H](CC2CCCCC2)NC(=O)[C@H](CCN)NC(=O)[C@@H](CC(C)C)NC(=O)[C@H](C)N(C)C(=O)[C@H](C(C)C)NC(=O)[C@H](Cc2ccc(-c3ccccc3)cc2)NC1=O [Example 1329] ({CH2CO}-Y(Carboxymethyl)[4Pal]DWL[Bip]V[NMeA][dL][Dab][Cha]VTC[Dab][Aun]-OH; thioether N-14)
9 | 20.7 nM | C#CC[C@H](NC(=O)[C@H](CCN)NC(=O)[C@@H]1CSCC(=O)N[C@@H]([C@@H](C)O)C(=O)N[C@@H](Cc2ccc(OCC(=O)O)cc2)C(=O)N[C@@H](CC(=O)O)C(=O)N[C@@H](Cc2cccc(C)c2)C(=O)N[C@@H](Cc2ccc(C(=O)O)cc2)C(=O)N[C@@H](Cc2ccc(-c3ccccc3)cc2)C(=O)N[C@@H](Cc2ccc(OCC(=O)O)cc2)C(=O)N(C)[C@@H](C)C(=O)N[C@H](CC(C)C)C(=O)N[C@@H](CCN)C(=O)N[C@@H](CC2CCCCC2)C(=O)N[C@@H](C(C)C)C(=O)N[C@@H]([C@@H](C)O)C(=O)N1)C(=O)NCCCCCCCCCCC(=O)O [Example 1240] ({CH2CO}-TY(Carboxymethyl)D[Phe(3-Me)][Phe(4-COOH)][Bip]Y(Carboxymethyl)[NMeA][dL][Dab][Cha]VTC[Dab][Pra][Aun]-OH; thioether N-14)

Same assay, conditions: PE-labeled PD-L1-Ig 20 nM final, Jurkat-hPD-1 cells; read-out: Jurkat HPD1 PDL1 IC50

Row | IC50 | SMILES
10 | 427 nM | CC(C)C[C@H]1NC(=O)[C@H](C)N(C)C(=O)[C@H](Cc2ccc(C(=O)O)cc2)NC(=O)[C@H](Cc2ccc(-c3ccccc3)cc2)NC(=O)[C@H](Cc2ccc(C(=O)O)cc2)NC(=O)[C@H](Cc2cccc(C(F)(F)F)c2)NC(=O)[C@H](CC(=O)O)NC(=O)[C@H](Cc2ccc(C(=O)O)cc2)NC(=O)[C@H](C(C)O)NC(=O)CSC[C@@H](C(=O)N[C@@H](CCN)C(=O)NCCOCCOCC(=O)NCCOCCOCC(=O)NCCCCCCCCCCCCCCC(=O)O)NC(=O)[C@H](CC(=O)O)NC(=O)[C@H](C(C)C)NC(=O)[C@H](CC2CCCCC2)NC(=O)[C@H](CCN)NC1=O (stereo partly drawn) [Example 2616] ({CH2CO}-[Thr(3ξ)][Phe(4-COOH)]D[Phe(3-CF3)][Phe(4-COOH)][Bip][Phe(4-COOH)][NMeA][dL][Dab][Cha]VDC[Dab][AEEA][AEEA]-{NH(CH2)14COOH}; thioether N-14)
11 | 4.4 nM | Cc1cccc(C[C@@H]2NC(=O)[C@H](CC(=O)O)NC(=O)[C@H](Cc3ccc(NC(=N)N)cc3)NC(=O)[C@H]([C@@H](C)O)NC(=O)CSC[C@@H](C(=O)N[C@@H](CCN)C(=O)NCCCCCCCCC(=O)NCCCCCCCCCCC(=O)O)NC(=O)[C@H](CCCN)NC(=O)[C@H](C(C)C)NC(=O)[C@H](CC3CCCCC3)NC(=O)[C@H](CCN)NC(=O)[C@@H](CC(C)C)NC(=O)[C@H](C)N(C)C(=O)[C@H](Cc3ccc(NC(=N)N)cc3)NC(=O)[C@H](Cc3ccc(-c4ccccc4)cc3)NC(=O)[C@H](Cc3ccc(NC(=N)N)cc3)NC2=O)c1 [Example 2684] ({CH2CO}-T[Phe(4-guanidino)]D[Phe(3-Me)][Phe(4-guanidino)][Bip][Phe(4-guanidino)][NMeA][dL][Dab][Cha]V[Orn]C[Dab][NH(CH2)8CO][Aun]-OH; thioether N-14)
12 | 37.5 nM | CCC[C@@H]1NC(=O)[C@H](C(C)(C)O)NC(=O)[C@H](CC2CCCCC2)NC(=O)[C@H](CCN)NC(=O)[C@@H](CC(C)C)NC(=O)[C@H](C)N(C)C(=O)[C@H](Cc2ccc(C(=O)O)cc2)NC(=O)[C@H](Cc2ccc(-c3ccccc3)cc2)NC(=O)[C@H](Cc2ccc(C(=O)O)cc2)NC(=O)[C@H](Cc2cccc(C)c2)NC(=O)[C@H](CC(=O)O)NC(=O)[C@H](Cc2ccc(C(=O)O)cc2)NC(=O)[C@H](Cc2ccc(C(F)(F)F)cc2)NC(=O)CSC[C@@H](C(=O)N[C@@H](CCN)C(=O)NCCCCCCCCCCC(=O)O)NC1=O [Example 2583] ({CH2CO}-[Phe(4-CF3)][Phe(4-COOH)]D[Phe(3-Me)][Phe(4-COOH)][Bip][Phe(4-COOH)][NMeA][dL][Dab][Cha][Val(3-OH)][Nva]C[Dab][Aun]-OH; thioether N-14)
